# Values of other authors, collected in US20180200206A1, “[…] METHODS AND COMPOSITIONS FOR TREATING BREAST DISORDERS” (ATOSSA GENETICS INC., priority 2015, published 2018).
# Target: estrogen receptor (Homo sapiens, UniProt P03372)
# Conditions: more potent than tamoxifen; stated as known in the art
# Sequence of estrogen receptor (P03372 whole entry): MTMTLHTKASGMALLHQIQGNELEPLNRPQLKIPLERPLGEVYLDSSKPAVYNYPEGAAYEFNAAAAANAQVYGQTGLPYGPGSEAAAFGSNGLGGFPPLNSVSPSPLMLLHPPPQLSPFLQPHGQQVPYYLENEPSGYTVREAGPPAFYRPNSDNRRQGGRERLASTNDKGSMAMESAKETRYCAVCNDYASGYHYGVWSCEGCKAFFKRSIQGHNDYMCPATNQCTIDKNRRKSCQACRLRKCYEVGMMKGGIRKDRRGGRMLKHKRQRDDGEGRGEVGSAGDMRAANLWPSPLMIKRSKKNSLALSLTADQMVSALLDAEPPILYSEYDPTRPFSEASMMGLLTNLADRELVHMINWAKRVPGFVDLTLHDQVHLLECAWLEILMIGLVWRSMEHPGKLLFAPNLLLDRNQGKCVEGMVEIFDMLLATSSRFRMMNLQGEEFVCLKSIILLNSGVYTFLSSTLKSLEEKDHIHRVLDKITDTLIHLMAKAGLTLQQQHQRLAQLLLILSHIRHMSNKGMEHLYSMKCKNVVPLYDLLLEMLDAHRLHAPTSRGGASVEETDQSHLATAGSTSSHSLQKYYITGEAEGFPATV
substance,measurement,value
4-hydroxytamoxifen,potency relative to tamoxifen,100 times
